Source: patent US6713638B2, “2-amino-3-aroyl-4,5 alkylthiophenes: agonist allosteric enhancers at human A1 adenosine receptors” (priority 2001, dated 2004)

Experiments:
A1AR = target: T1, A1AR (Homo sapiens, UniProt P30542); experiment: A1AR antagonistic activity: competition with equilibrium binding of [3H]CPX; conditions: 100 μM, N = 3; for inhibition at 100 µM: read-out: Antagonist activity, % (% inhibition of specific equilibrium binding of [3H]8-cyclopentyl-1,3-dipropylxanthine)
T1 sequence (P30542 1-326): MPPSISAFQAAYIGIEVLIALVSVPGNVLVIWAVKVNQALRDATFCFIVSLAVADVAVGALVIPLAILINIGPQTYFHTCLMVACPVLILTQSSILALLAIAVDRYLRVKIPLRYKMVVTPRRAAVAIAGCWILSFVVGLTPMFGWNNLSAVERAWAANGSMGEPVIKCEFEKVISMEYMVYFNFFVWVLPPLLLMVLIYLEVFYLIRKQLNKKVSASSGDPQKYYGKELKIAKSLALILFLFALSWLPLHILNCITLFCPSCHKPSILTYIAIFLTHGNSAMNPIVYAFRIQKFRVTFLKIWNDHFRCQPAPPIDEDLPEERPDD
Excerpt: Several of the candidate AEs had substantial antagonistic activity. However, the AE and antagonist activities are unrelated (r^2=0.057, n=28).

hA1AR = target: T2, hA1AR (Homo sapiens, UniProt P30542); experiment: Assay of AE (allosteric enhancer) activity: slowing of 125I-ABA dissociation from the A1AR-G protein ternary complex; type: binding; conditions: CHO-K1 membranes; for AE Score, %: 0.1 mM final AE, specifically bound 125I-ABA remaining after 10 minutes of dissociation, Mean ± SEM (N = 3)
T2 construct: expressed in transfected cells; membranes
T2 sequence (P30542 1-326): T1 sequence (P30542 1-326)
Excerpt: The allosteric enhancer (AE) activity was studied at the human A1AR (hA1AR) of a panel of compounds consisting of nine 2-amino-3-aroylthiophenes, (3a-i), eight 2-amino-3-benzoyl-4,5-dimethylthiophenes (13a-h), […] 3-aroyl-2-carboxy-4,5-dimethylthiophenes, (17a-e), ten 2-amino-3-benzoyl-5,6-ihydro-4H-cyclopenta[b]thiophenes, (19a-I), fourteen 2-amino-3-benzoyl-4,5,6,7-tetrahyd robenzo-[b]thiophenes, (20a-n), and fifteen 2-amino-3-benzoyl-5,6,7,8-tetrahydro-4H-cyclohepta[b]thiophenes, (21a-o). An in vitro assay employing the A1AR agonist ^125I-N^6-aminobenzyladenosine (^125I-ABA) and membranes from CHO-K1 cells stably expressing the hA1AR measured, as an index of AE activity, the ability of a candidate AE to slow the dissociation of the radioligand from the A1AR-G protein ternary complex.
The assay of AE activity consisted of three phases: formation of the ^125I-ABA-A1AR-G protein ternary complex; binding of the AE to the allosteric site, and dissociation of the complex by adding a combination of an A1AR antagonist (100 μM cyclopentyltheophylline) and 50 µM GTPγS. This procedure detects only AE activity since phase 3 (dissociation) is affected only by the allosteric activity of the test compound and is not affected by competitive antagonist activity. GTPγS is added to accelerate the dissociation process. […] The assay employed membranes from CHO-K1 cells stably expressing the hA1AR. For agonist binding to equilibrium, the incubation mixture consisted of 10 mM HEPES, pH 7.2, containing 0.5 mM MgCl2, 1 U/mL adenosine deaminase, 0.5 nM ^125I-ABA and 10 μg of membrane protein in a final volume of 100 μL. This phase of the assay was allowed to proceed to equilibrium (>90 minutes) at room temperature. At that point phase 2 was initiated by adding 50 μL of a 0.3 mM solution (0.1 mM final) of a candidate AE or DMSO vehicle to rapidly occupy the allosteric site. Stock solutions of AEs (10 mM) were prepared in DMSO. Five minutes later phase 3 was initiated by the addition of 50 μL of a solution containing 400 μM 8-cyclopentyltheophylline and 200 μM GTPγS. Ten minutes later, residual radioligand bound to Aireceptors was trapped on Whatman GF/C glass fiber filters using a Brandel cell harvester, washed 3 times over a 20 second interval and counted in a γ-counter. The percentage of specifically bound agonist remaining after 10 minutes of dissociation was used to calculate the “score” of AE activity:
AE activity score=100×(B−Bo)/(Beq−Bo)
Where B=residual binding (cpm) bound at the end of 10 minutes of dissociation in the presence of an AE, Bo=residual binding (cpm) at the end of 10 minutes of dissociation in the absence of an AE, and Beq=cpm bound at the end of phase 2. A compound with no AE activity has a score of 0 in this assay. An AE which completely arrests agonist dissociation will have a score of 100.

adenosine A1 receptors = conditions: background statement, cited from earlier work

inhibition at 100 µM (A1AR) [%]	melting point [°C]	Antagonist activity, % (% inhibition of specific equilibrium binding of [3H]8-cyclopentyl-1,3-dipropylxanthine) (A1AR) [%]	SMILES	AE Score, % (hA1AR) [%]	AE activity (in words) (hA1AR; hA1AR)	enhancement at A1 receptors (adenosine A1 receptors)	selectivity for adenosine A1 receptors (adenosine A1 receptors; other adenosine receptor subtypes, other classes of receptors)
24	147	–	Nc1sccc1C(=O)c1ccccc1 [Compound 3a, 2-Amino-3-benzoylthiophene]	0.2 ± 0.01	–	–	–
76	202	–	NC1SC2=CCCC2=C1C(=O)c1cccc(Br)c1 (stereo not drawn) [Compound 19d, 2-Amino-3-(3-bromobenzoyl)-4,5-dihydrocyclopenta[b]thiophene]	13 ± 3	–	–	–
–	110	–	Nc1sc2c(c1C(=O)c1ccc(-c3ccccc3)cc1)CCCC2 [Compound 20l, 2-Amino-3-(4-phenylbenzoyl)-4,5,6,7-tetrahydrobenzo[b]thiophene]	33 ± 2	excellent activity	–	–
–	–	11	Nc1sc2c(c1C(=O)c1ccc(I)cc1)CCCCC2 [Compound 21i]	96 ± 4.7	–	–	–
–	–	19	COc1cccc(C(=O)c2c(N)sc3c2CCCCC3)c1 [Compound 21j]	99 ± 3.1	–	–	–
–	–	–	Cc1sc(N)c(C(=O)c2cccc(C(F)(F)F)c2)c1C [PD 81,723]	–	–	enhancement at A1 receptors of all species tested to date	no effects on other adenosine receptor subtypes or on other classes of receptors
